Reference: patent US20230085307A1, “PYRIDAZINONE COMPOUND AND HERBICIDE” (NISSAN CHEMICAL CORPORATION, priority 2019, published 2023)

Legend:
velvetleaf [1] = assay: Test Example 4: herbicidal effect by soil treatment (Table 19, symbol M); format: in vivo, velvetleaf (Abutilon theophrasti); conditions: amount of applied herbicide 320 g/ha
How it was run: (§1)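 Herbicidal effect was rated 3 weeks after treatment, using the scoring criteria of an earlier test. The compound, formulated as an emulsion and diluted in water to a set herbicide amount, had been sprayed uniformly on soil over freshly sown seeds. Growth took place in a greenhouse at 25° C. to 30° C.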

false cleavers [2] = assay: Test Example 5: herbicidal effect by foliage application, plastic box (Table 20, symbol Q); format: in vivo, false cleavers (Galium spurium); conditions: foliage application, 320 g/ha, three weeks after application
How it was run: (§2)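 Foliar spray test: emulsion formulation diluted in water to a set application rate, sprayed onto 14-day-old plants raised in diluvial soil at 25° C to 30° C under glass. Both herbicidal effect and crop effect rated visually three weeks later.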

false cleavers [3] = assay: Test Example 4: herbicidal effect by soil treatment (Table 19, symbol Q); format: in vivo, false cleavers (Galium spurium); conditions: amount of applied herbicide 320 g/ha
How it was run: as §1

windgrass [4] = assay: Test Example 5: herbicidal effect by foliage application, plastic box (Table 20, symbol L); format: in vivo, windgrass (Apera spica-venti); conditions: foliage application, 320 g/ha, three weeks after application
How it was run: as §2

southern crabgrass [5] = assay: Test Example 4: herbicidal effect by soil treatment (Table 19, symbol F); format: in vivo, southern crabgrass (Digitaria ciliaris); conditions: amount of applied herbicide 320 g/ha
How it was run: as §1

green foxtail [6] = assay: Test Example 4: herbicidal effect by soil treatment (Table 19, symbol G); format: in vivo, green foxtail (Setaria viridis); conditions: amount of applied herbicide 320 g/ha
How it was run: as §1

lambsquarters [7] = assay: Test Example 5: herbicidal effect by foliage application, plastic box (Table 20, symbol O); format: in vivo, lambsquarters (Chenopodium album); conditions: foliage application, 320 g/ha, three weeks after application
How it was run: as §2

blackgrass [8] = assay: Test Example 5: herbicidal effect by foliage application, plastic box (Table 20, symbol J); format: in vivo, blackgrass (Alopecurus myosuroides); conditions: foliage application, 320 g/ha, three weeks after application
How it was run: as §2

chickweed [9] = assay: Test Example 5: herbicidal effect by foliage application, plastic box (Table 20, symbol P); format: in vivo, common chickweed (Stellaria media); conditions: foliage application, 320 g/ha, three weeks after application
How it was run: as §2

velvetleaf [10] = assay: Test Example 5: herbicidal effect by foliage application, plastic box (Table 20, symbol M); format: in vivo, velvetleaf (Abutilon theophrasti); conditions: foliage application, 320 g/ha, three weeks after application
How it was run: as §2

redroot pigweed [11] = assay: Test Example 5: herbicidal effect by foliage application, plastic box (Table 20, symbol N); format: in vivo, redroot pigweed (Amaranthus retroflexus); conditions: foliage application, 320 g/ha, three weeks after application
How it was run: as §2

windgrass [12] = assay: Test Example 4: herbicidal effect by soil treatment (Table 19, symbol L); format: in vivo, windgrass (Apera spica-venti); conditions: amount of applied herbicide 320 g/ha
How it was run: as §1

wild oat [13] = assay: Test Example 4: herbicidal effect by soil treatment (Table 19, symbol I); format: in vivo, wild oat (Avena fatua); conditions: amount of applied herbicide 320 g/ha
How it was run: as §1

Italian ryegrass [14] = assay: Test Example 5: herbicidal effect by foliage application, plastic box (Table 20, symbol K); format: in vivo, Italian ryegrass (Lolium multiflorum); conditions: foliage application, 320 g/ha, three weeks after application
How it was run: as §2

green foxtail [15] = assay: Test Example 5: herbicidal effect by foliage application, plastic box (Table 20, symbol G); format: in vivo, green foxtail (Setaria viridis); conditions: foliage application, 320 g/ha, three weeks after application
How it was run: as §2

blackgrass [16] = assay: Test Example 4: herbicidal effect by soil treatment (Table 19, symbol J); format: in vivo, blackgrass (Alopecurus myosuroides); conditions: amount of applied herbicide 320 g/ha
How it was run: as §1

lambsquarters [17] = assay: Test Example 4: herbicidal effect by soil treatment (Table 19, symbol O); format: in vivo, lambsquarters (Chenopodium album); conditions: amount of applied herbicide 320 g/ha
How it was run: as §1

barnyard grass [18] = assay: Test Example 5: herbicidal effect by foliage application, plastic box (Table 20, symbol H); format: in vivo, barnyard grass (Echinochloa crus-galli); conditions: foliage application, 320 g/ha, three weeks after application
How it was run: as §2

barnyard grass [19] = assay: Test Example 4: herbicidal effect by soil treatment (Table 19, symbol H); format: in vivo, barnyard grass (Echinochloa crus-galli); conditions: amount of applied herbicide 320 g/ha
How it was run: as §1

southern crabgrass [20] = assay: Test Example 5: herbicidal effect by foliage application, plastic box (Table 20, symbol F); format: in vivo, southern crabgrass (Digitaria ciliaris); conditions: foliage application, 320 g/ha, three weeks after application
How it was run: as §2

redroot pigweed [21] = assay: Test Example 4: herbicidal effect by soil treatment (Table 19, symbol N); format: in vivo, redroot pigweed (Amaranthus retroflexus); conditions: amount of applied herbicide 320 g/ha
How it was run: as §1

chickweed [22] = assay: Test Example 4: herbicidal effect by soil treatment (Table 19, symbol P); format: in vivo, common chickweed (Stellaria media); conditions: amount of applied herbicide 320 g/ha
How it was run: as §1

persian speedwell [23] = assay: Test Example 5: herbicidal effect by foliage application, plastic box (Table 20, symbol R); format: in vivo, Persian speedwell (Veronica persica); conditions: foliage application, 320 g/ha, three weeks after application
How it was run: as §2

wild oat [24] = assay: Test Example 5: herbicidal effect by foliage application, plastic box (Table 20, symbol I); format: in vivo, wild oat (Avena fatua); conditions: foliage application, 320 g/ha, three weeks after application
How it was run: as §2

persian speedwell [25] = assay: Test Example 4: herbicidal effect by soil treatment (Table 19, symbol R); format: in vivo, Persian speedwell (Veronica persica); conditions: amount of applied herbicide 320 g/ha
How it was run: as §1

Italian ryegrass [26] = assay: Test Example 4: herbicidal effect by soil treatment (Table 19, symbol K); format: in vivo, Italian ryegrass (Lolium multiflorum); conditions: amount of applied herbicide 320 g/ha
How it was run: as §1

With `CCCC(=O)Oc1c(C)nn(C)c(=O)c1-c1c(-c2ccsc2)sc2ccccc12` [1-084] the “herbicidal effect rating, M: velvetleaf” value (velvetleaf [1]) was 0 (Herbicidal rate of 5% or less (almost no effect)), the “herbicidal effect grade, Q: false cleavers” value (false cleavers [2]) was 0 (Herbicidal rate of 5% or less (almost no effect)) and the “herbicidal effect rating, Q: false cleavers” value (false cleavers [3]) was 0 (Herbicidal rate of 5% or less (almost no effect)). For the same compound, the “herbicidal effect grade, L: windgrass” value (windgrass [4]) was 0 (Herbicidal rate of 5% or less (almost no effect)), the “herbicidal effect rating, F: southern crabgrass” value (southern crabgrass [5]) was 1 (Herbicidal rate of 5% or more and less than 20%) and the “herbicidal effect rating, G: green foxtail” value (green foxtail [6]) was 2 (Herbicidal rate of 20% or more and less than 40%). The “herbicidal effect grade, O: lambsquarters” value (lambsquarters [7]) was 0 (Herbicidal rate of 5% or less (almost no effect)), the “herbicidal effect grade, J: blackgrass” value (blackgrass [8]) was 0 (Herbicidal rate of 5% or less (almost no effect)) and the “herbicidal effect grade, P: chickweed” value (chickweed [9]) was 5 (Herbicidal rate of 90% or more (almost completely withered)). The “herbicidal effect grade, M: velvetleaf” value (velvetleaf [10]) was 0 (Herbicidal rate of 5% or less (almost no effect)), the “herbicidal effect grade, N: redroot pigweed” value (redroot pigweed [11]) was 0 (Herbicidal rate of 5% or less (almost no effect)) and the “herbicidal effect rating, L: windgrass” value (windgrass [12]) was 0 (Herbicidal rate of 5% or less (almost no effect)). The “herbicidal effect rating, I: wild oat” value (wild oat [13]) was 0 (Herbicidal rate of 5% or less (almost no effect)), the “herbicidal effect grade, K: Italian ryegrass” value (Italian ryegrass [14]) was 1 (Herbicidal rate of 5% or more and less than 20%) and the “herbicidal effect grade, G: green foxtail” value (green foxtail [15]) was 0 (Herbicidal rate of 5% or less (almost no effect)). The “herbicidal effect rating, J: blackgrass” value (blackgrass [16]) was 0 (Herbicidal rate of 5% or less (almost no effect)), the “herbicidal effect rating, O: lambsquarters” value (lambsquarters [17]) was 0 (Herbicidal rate of 5% or less (almost no effect)) and the “herbicidal effect grade, H: barnyard grass” value (barnyard grass [18]) was 0 (Herbicidal rate of 5% or less (almost no effect)). For the same compound, the “herbicidal effect rating, H: barnyard grass” value (barnyard grass [19]) was 1 (Herbicidal rate of 5% or more and less than 20%), the “herbicidal effect grade, F: southern crabgrass” value (southern crabgrass [20]) was 0 (Herbicidal rate of 5% or less (almost no effect)) and the “herbicidal effect rating, N: redroot pigweed” value (redroot pigweed [21]) was 0 (Herbicidal rate of 5% or less (almost no effect)). For the same compound, the “herbicidal effect rating, P: chickweed” value (chickweed [22]) was 1 (Herbicidal rate of 5% or more and less than 20%), the “herbicidal effect grade, R: persian speedwell” value (persian speedwell [23]) was 0 (Herbicidal rate of 5% or less (almost no effect)) and the “herbicidal effect grade, I: wild oat” value (wild oat [24]) was 0 (Herbicidal rate of 5% or less (almost no effect)). The “herbicidal effect rating, R: persian speedwell” value (persian speedwell [25]) was 0 (Herbicidal rate of 5% or less (almost no effect)) and the “herbicidal effect rating, K: Italian ryegrass” value (Italian ryegrass [26]) was 0 (Herbicidal rate of 5% or less (almost no effect)).
